# Experimental data: patent US20030171377A1, “Antidiabetic agents” (priority 2001, published 2003)
# Target: T1, PPAR gamma (Mus musculus, UniProt P37238)
# T1 construct: expressed in transfected cells; host or cells: HepG2
# T1 sequence (P37238 1-505): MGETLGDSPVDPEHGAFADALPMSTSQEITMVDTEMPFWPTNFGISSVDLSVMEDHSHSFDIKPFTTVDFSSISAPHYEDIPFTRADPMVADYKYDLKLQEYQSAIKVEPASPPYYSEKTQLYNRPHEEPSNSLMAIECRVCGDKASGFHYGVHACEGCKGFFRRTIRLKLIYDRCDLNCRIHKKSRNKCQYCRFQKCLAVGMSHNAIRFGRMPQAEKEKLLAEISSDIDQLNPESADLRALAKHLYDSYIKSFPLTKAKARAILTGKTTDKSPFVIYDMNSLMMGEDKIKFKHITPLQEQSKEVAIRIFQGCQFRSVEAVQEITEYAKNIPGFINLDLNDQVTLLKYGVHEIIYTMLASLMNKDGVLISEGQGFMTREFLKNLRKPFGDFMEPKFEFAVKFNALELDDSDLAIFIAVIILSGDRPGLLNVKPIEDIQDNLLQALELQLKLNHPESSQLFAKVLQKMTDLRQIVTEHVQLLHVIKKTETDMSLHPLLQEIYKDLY
# Experiment: HepG2-mGAMMA assay (PPAR gamma)
# Format: cell-based
# Conditions: HepG2 cells
structure (smiles),measurement,value
CN(CCOc1ccc(CC2SC(=O)NC2=O)cc1)c1ccccn1 (stereo not shown) [Rosiglitazone],HepG2-mGamma Max. Res. % Rosi.,100.0 % Rosi.
